# Data as given in PubChem BioAssay AID220 (DTP/NCI, 2004).
# Values joined by “and” are separate entries in the source; they are usually repeats but may differ in a detail not shown here. Identical values can stand only once. Results filed as inconclusive are left out.
# Test system: CD8F1 mice, subcutaneous mammary adenocarcinoma, T/C%
# Assay: NCI In Vivo Anticancer Drug Screen. Data for tumor model Mammary Adenocarcinoma CD8F1 (subcutaneous) in CD8F1
# Conditions: higher = larger tumour
# In short: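 Compound-treated versus vehicle-treated mice with transplantable tumors; survival or tumor size compared as T/C.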
# [1] = endpoint: median tumor weight change, dose: 125.0 mg/kg/injection, schedule: Q01DX001 (ip), vehicle: saline with Tween-80
# [2] = endpoint: median tumor weight change, dose: 250.0 mg/kg/injection, schedule: Q01DX001 (ip), vehicle: saline with Tween-80
# [3] = endpoint: median tumor weight change, dose: 500.0 mg/kg/injection, schedule: Q01DX001 (ip), vehicle: saline with Tween-80
structure (smiles),measurement,setting,value
OCC12COCN1COC2,T/C,"endpoint: median tumor weight change, dose: 50.0 mg/kg/injection, schedule: Q01DX001 (ip), vehicle: saline",100 % of control
same,T/C,"endpoint: median tumor weight change, dose: 100.0 mg/kg/injection, schedule: Q01DX001 (ip), vehicle: saline",107 % of control
same,T/C,"endpoint: median tumor weight change, dose: 200.0 mg/kg/injection, schedule: Q01DX001 (ip), vehicle: saline",71 % of control
same,T/C,"endpoint: median tumor weight change, dose: 400.0 mg/kg/injection, schedule: Q01DX001 (ip), vehicle: saline",87 % of control
same,T/C,"endpoint: median tumor weight change, dose: 800.0 mg/kg/injection, schedule: Q01DX001 (ip), vehicle: saline",82 % of control
O=C1N[C@H]2[C@H](O)[C@H](O)[C@@H](O)[C@H](O)[C@@H]2c2cc3c(c(O)c21)OCO3,T/C,"endpoint: median tumor weight change, dose: 1.25 mg/kg/injection, schedule: Q01DX005 (ip), vehicle: saline + alcohol",110 % of control
same,T/C,"endpoint: median tumor weight change, dose: 2.5 mg/kg/injection, schedule: Q01DX005 (ip), vehicle: saline + alcohol",66 % of control
same,T/C,"endpoint: median tumor weight change, dose: 5.0 mg/kg/injection, schedule: Q01DX005 (ip), vehicle: saline + alcohol",48 % of control
CC(=O)N(C)C,T/C,"endpoint: median tumor weight change, dose: 225.0 mg/kg/injection, schedule: Q01DX001 (ip), vehicle: saline",52 % of control
same,T/C,"endpoint: median tumor weight change, dose: 450.0 mg/kg/injection, schedule: Q01DX001 (ip), vehicle: saline",85 % of control
same,T/C,"endpoint: median tumor weight change, dose: 900.0 mg/kg/injection, schedule: Q01DX001 (ip), vehicle: saline",72 % of control and 78 % of control
CC(=O)Oc1ccc[nH]c1=O,T/C,"endpoint: median tumor weight (est.), dose: 25.0 mg/kg/injection, schedule: Q07DX005 (ip), vehicle: saline with Tween-80",68 % of control
same,T/C,"endpoint: median tumor weight (est.), dose: 50.0 mg/kg/injection, schedule: Q07DX005 (ip), vehicle: saline with Tween-80",88 % of control
same,T/C,"endpoint: median tumor weight (est.), dose: 100.0 mg/kg/injection, schedule: Q07DX005 (ip), vehicle: saline with Tween-80",93 % of control
same,T/C,"endpoint: median tumor weight (est.), dose: 200.0 mg/kg/injection, schedule: Q07DX005 (ip), vehicle: saline with Tween-80",102 % of control
same,T/C,"endpoint: median tumor weight (est.), dose: 400.0 mg/kg/injection, schedule: Q07DX005 (ip), vehicle: saline with Tween-80",118 % of control
same,T/C,"endpoint: median tumor weight (est.), dose: 800.0 mg/kg/injection, schedule: Q07DX005 (ip), vehicle: saline with Tween-80",54 % of control
O=C(Nc1nncs1)c1cccs1,T/C,[1],92 % of control and 100 % of control
CO[C@@H]1[C@H](O)CC[C@]2(CO2)[C@H]1[C@@]1(C)O[C@@H]1CC=C(C)C,T/C,"endpoint: median tumor weight change, dose: 31.25 mg/kg/injection, schedule: Q01DX001 (ip), vehicle: saline with Tween-80",113 % of control
same,T/C,"endpoint: median tumor weight change, dose: 62.5 mg/kg/injection, schedule: Q01DX001 (ip), vehicle: saline with Tween-80",100 % of control
same,T/C,[1],106 % of control
same,T/C,[2],110 % of control
CN(c1ccccc1)P(=O)(N1CC1)N1CC1,T/C,"endpoint: mean tumor weight, dose: 12.5 mg/kg/injection, schedule: Q07DX007 (ip), vehicle: saline",3 % of control
C=C(Cl)C(=NC(C)(C)C)Nc1ccccc1C,T/C,"endpoint: median tumor weight change, dose: 31.25 mg/kg/injection, schedule: Q01DX001 (ip), vehicle: Klucel (hydroxypropylcellulose) (HPC)",86 % of control
same,T/C,"endpoint: median tumor weight change, dose: 62.5 mg/kg/injection, schedule: Q01DX001 (ip), vehicle: Klucel (hydroxypropylcellulose) (HPC)",85 % of control
COC1CC(C)C(OC)c2cc(O)cc(c2O)NC(=O)/C(C)=C/C=C\C(C)C(OC(N)=O)/C(C)=C\C(C)C1OC (stereo not drawn),T/C,"endpoint: median tumor weight change, dose: 6.25 mg/kg/injection, schedule: Q01DX001 (ip), vehicle: saline + Tween-80 + alcohol",87 % of control
same,T/C,"endpoint: median tumor weight change, dose: 12.5 mg/kg/injection, schedule: Q01DX001 (ip), vehicle: saline + Tween-80 + alcohol",88 % of control
same,T/C,"endpoint: median tumor weight change, dose: 25.0 mg/kg/injection, schedule: Q01DX001 (ip), vehicle: saline + Tween-80 + alcohol",87 % of control
CCCCCc1cc(/C=C2/N=C(c3ccc[nH]3)C=C2OC)[nH]c1C,T/C,"endpoint: median tumor weight (est.), dose: 0.5 mg/kg/injection, schedule: Q07DX005 (ip), vehicle: suspension in saline",169 % of control
same,T/C,"endpoint: median tumor weight (est.), dose: 1.0 mg/kg/injection, schedule: Q07DX005 (ip), vehicle: suspension in saline",85 % of control
same,T/C,"endpoint: median tumor weight (est.), dose: 4.0 mg/kg/injection, schedule: Q07DX005 (ip), vehicle: suspension in saline",82 % of control
same,T/C,"endpoint: median tumor weight (est.), dose: 8.0 mg/kg/injection, schedule: Q07DX005 (ip), vehicle: suspension in saline",95 % of control
CC1(C)OC1CS(=O)c1ccccc1 (stereo not drawn),T/C,[1],160 % of control
same,T/C,[2],83 % of control and 92 % of control
same,T/C,[3],72 % of control and 94 % of control
Cc1cn(C2CC(O)C(CO)O2)c(=O)[nH]c1=O (stereo not drawn),T/C,"endpoint: median tumor weight (est.), dose: 25.0 mg/kg/injection, schedule: Q07DX005 (ip), vehicle: saline",88 % of control
same,T/C,"endpoint: median tumor weight (est.), dose: 50.0 mg/kg/injection, schedule: Q07DX005 (ip), vehicle: saline",107 % of control
NC(Cc1ccc(N(CCCl)CCCl)cc1)C(=O)O (stereo not drawn),T/C,"endpoint: median tumor weight (est.), dose: 2.0 mg/kg/injection, schedule: Q07DX005 (ip), vehicle: Klucel (hydroxypropylcellulose) (HPC)",39 % of control
same,T/C,"endpoint: median tumor weight (est.), dose: 4.0 mg/kg/injection, schedule: Q07DX005 (ip), vehicle: Klucel (hydroxypropylcellulose) (HPC)",33 % of control
COc1cccc2c1C(=O)c1c(O)c3c(c(O)c1C2=O)C[C@@](O)(/C(C)=N\NC(=O)CO)C[C@@H]3OC1CC(N)C(O)C(C)O1 (stereo partly drawn),T/C,"endpoint: mean tumor weight, dose: 1.0 mg/kg/injection, schedule: Q07DX006 (ip), vehicle: saline",110 % of control
same,T/C,"endpoint: mean tumor weight, dose: 2.0 mg/kg/injection, schedule: Q07DX006 (ip), vehicle: saline",207 % of control
same,T/C,"endpoint: mean tumor weight, dose: 4.0 mg/kg/injection, schedule: Q07DX006 (ip), vehicle: saline",64 % of control
same,T/C,"endpoint: median tumor weight (est.), dose: 1.0 mg/kg/injection, schedule: Q07DX005 (ip), vehicle: saline",85 % of control
same,T/C,"endpoint: median tumor weight (est.), dose: 2.0 mg/kg/injection, schedule: Q07DX005 (ip), vehicle: saline",47 % of control
same,T/C,"endpoint: median tumor weight (est.), dose: 4.0 mg/kg/injection, schedule: Q07DX005 (ip), vehicle: saline",104 % of control
CC1C(=O)c2cc3c(cc2CCN(C)Cc2c1ccc1c2OCO1)OCO3 (stereo not drawn),T/C,"endpoint: median tumor weight change, dose: 12.5 mg/kg/injection, schedule: Q01DX001 (ip), vehicle: saline with Tween-80",65 % of control
same,T/C,"endpoint: median tumor weight change, dose: 25.0 mg/kg/injection, schedule: Q01DX001 (ip), vehicle: saline with Tween-80",64 % of control
CCN(CC)CCCNc1nccc2c(C)c3[nH]c4ccncc4c3cc12,T/C,"endpoint: median tumor weight change, dose: 25.0 mg/kg/injection, schedule: Q01DX001 (ip), vehicle: other",29 % of control and 32 % of control
COc1cccc2c1C(=O)c1c(O)c3c(c(O)c1C2=O)C[C@@](O)(C(O)CO)C[C@@H]3OC1CC(N)C(O)C(C)O1 (stereo partly drawn),T/C,"endpoint: mean tumor weight, dose: 6.0 mg/kg/injection, schedule: Q07DX006 (ip), vehicle: saline",33 % of control
same,T/C,"endpoint: mean tumor weight, dose: 12.0 mg/kg/injection, schedule: Q07DX006 (ip), vehicle: saline",45 % of control
same,T/C,"endpoint: median tumor weight (est.), dose: 3.0 mg/kg/injection, schedule: Q07DX005 (ip), vehicle: saline",77 % of control
same,T/C,"endpoint: median tumor weight (est.), dose: 6.0 mg/kg/injection, schedule: Q07DX005 (ip), vehicle: saline",48 % of control
same,T/C,"endpoint: median tumor weight (est.), dose: 12.0 mg/kg/injection, schedule: Q07DX005 (ip), vehicle: saline",26 % of control
CC[C@@]1(O)C[C@H](OC2CC(N(C)C)C(OC3CC(O)C(OC4CCC(=O)C(C)O4)C(C)O3)C(C)O2)c2c(cc3c(c2O)C(=O)c2c(O)cccc2C3=O)[C@H]1C(=O)OC (stereo partly drawn),T/C,"endpoint: mean tumor weight, dose: 0.75 mg/kg/injection, schedule: Q01DX009 (ip), vehicle: saline",108 % of control
same,T/C,"endpoint: mean tumor weight, dose: 1.5 mg/kg/injection, schedule: Q01DX009 (ip), vehicle: saline",75 % of control
same,T/C,"endpoint: mean tumor weight, dose: 3.0 mg/kg/injection, schedule: Q01DX009 (ip), vehicle: saline",35 % of control
same,T/C,"endpoint: mean tumor weight, dose: 6.0 mg/kg/injection, schedule: Q01DX009 (ip), vehicle: saline",5 % of control
same,T/C,"endpoint: median tumor weight (est.), dose: 2.97 mg/kg/injection, schedule: Q07DX005 (ip), vehicle: water",122 % of control
same,T/C,"endpoint: median tumor weight (est.), dose: 4.45 mg/kg/injection, schedule: Q07DX005 (ip), vehicle: water",87 % of control
same,T/C,"endpoint: median tumor weight (est.), dose: 6.67 mg/kg/injection, schedule: Q07DX005 (ip), vehicle: water",92 % of control
same,T/C,"endpoint: median tumor weight (est.), dose: 10.0 mg/kg/injection, schedule: Q07DX005 (ip), vehicle: water",61 % of control
same,T/C,"endpoint: median tumor weight (est.), dose: 15.0 mg/kg/injection, schedule: Q07DX005 (ip), vehicle: water",11 % of control
O=C(Oc1ccccc1)c1cc(O)c(O)c(O)c1,T/C,"endpoint: median tumor weight change, dose: 150.0 mg/kg/injection, schedule: Q01DX001 (ip), vehicle: suspension in saline",98 % of control
same,T/C,"endpoint: median tumor weight change, dose: 300.0 mg/kg/injection, schedule: Q01DX001 (ip), vehicle: suspension in saline",111 % of control
O=c1c(O)c(-c2cc(O)c(O)c(O)c2)oc2cc(O)cc(O)c12,T/C,"endpoint: median tumor weight (est.), dose: 12.5 mg/kg/injection, schedule: Q07DX005 (ip), vehicle: other",85 % of control
same,T/C,"endpoint: median tumor weight (est.), dose: 25.0 mg/kg/injection, schedule: Q07DX005 (ip), vehicle: other",85 % of control
same,T/C,"endpoint: median tumor weight (est.), dose: 50.0 mg/kg/injection, schedule: Q07DX005 (ip), vehicle: other",122 % of control
same,T/C,"endpoint: median tumor weight (est.), dose: 100.0 mg/kg/injection, schedule: Q07DX005 (ip), vehicle: other",70 % of control
same,T/C,"endpoint: median tumor weight (est.), dose: 200.0 mg/kg/injection, schedule: Q07DX005 (ip), vehicle: other",89 % of control
same,T/C,"endpoint: median tumor weight (est.), dose: 400.0 mg/kg/injection, schedule: Q07DX005 (ip), vehicle: other",70 % of control
same,T/C,[1],61 % of control
same,T/C,[2],46 % of control
same,T/C,[3],40 % of control
